Tested on: 5×-ARE-luciferase transcriptional reporter in primary corticostriatal neuronal co-cultures
Assay: Nrf2 activation, 5×ARE-luciferase reporter assay
Format: cell-based, mouse
Conditions: 7 h and 24 h treatment
Description: Activation of the 5×-ARE luciferase reporter became stronger with an apparent left-shift in concentration-response for extended treatment over 24 h compared to 7 h. Fold-expression changes are expressed relative to the DMSO-carrier only condition (“0”) normalized to a co-transfected, constitutive Renilla luciferase control and set to a value of 1.
Primary corticostriatal neuronal co-cultures were prepared from E18 Sprague-Dawley rat or C57Bl/6 mouse embryos of either gender. For luciferase reporter assays, the Cignal Antioxidant Response Reporter kit (Qiagen) was used. The 5×ARE luciferase reporter mixture at 40:1 luciferase:Renilla plasmid was transfected into cortical and striatal neurons separately using an Amaxa electroporation device (Lonza). After electroporation, neurons were pooled and immediately plated into 96-well plates containing mature glial cultures. After culturing for 96 h, neuroprotective compositions were added at the indicated concentrations for 7 or 24 h prior to harvesting using Dual-Glo Luciferase Assay System protocol and reagents (Promega). Dual-wavelength luminescence was detected using a SpectraMax L microplate reader (Molecular Devices). Luciferase values were normalized to the internal Renilla control and fold-expression over the DMSO-only treatment control was calculated. At least 3 independent experiments were done using 4-6 biological replicates.

In the case of CC1(C)CC[C@]2(C(=O)O)CC[C@]3(C)[C@H](C(=O)C=C4[C@@]5(C)C=C(C#N)C(=O)C(C)(C)[C@@H]5CC[C@]43C)[C@@H]2C1 [bardoxolone], the “induction of 5×-ARE-luciferase reporter” value is reported as “Concentration- and time-dependent induction”.

Source: patent US10960037B2, “Method of treating neurological conditions with extract of Nerium species or Thevetia species” (PHOENIX BIOTECHNOLOGY, INC., priority 2010, dated 2021)
